Peptide text beside a SMILES is read from it.
How the values were obtained:
CRF2R = molecular target: T1, CRF2R (Homo sapiens, UniProt Q13324); test: CRF2R agonist activity (EC50 and Emax), called comparative CRF binding; format: cell-based; conditions: CRF2R; for EC50: read-out: CRF2R EC50
T1 sequence (Q13324 1-411): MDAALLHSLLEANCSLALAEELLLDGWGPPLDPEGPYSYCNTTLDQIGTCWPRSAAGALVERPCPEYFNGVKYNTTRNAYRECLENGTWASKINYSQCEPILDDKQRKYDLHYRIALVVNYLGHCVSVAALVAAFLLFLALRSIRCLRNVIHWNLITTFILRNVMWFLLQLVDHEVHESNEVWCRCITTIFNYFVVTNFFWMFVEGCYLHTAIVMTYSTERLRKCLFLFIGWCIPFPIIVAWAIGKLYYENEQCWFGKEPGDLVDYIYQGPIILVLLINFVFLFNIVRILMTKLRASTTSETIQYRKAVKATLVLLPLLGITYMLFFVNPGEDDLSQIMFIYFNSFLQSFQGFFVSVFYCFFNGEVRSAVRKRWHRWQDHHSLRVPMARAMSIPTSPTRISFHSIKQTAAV
Source text: (§1) The pharmacological activity and selectivity of the peptides of present invention can be determined using published test procedures. See, e.g, U.S. patent application Ser. No. 09/799,978. Because CRF2R and CRF1R are homologous proteins, it is expected that a certain proportion of agonists for CRF2R will also function as agonists of CRF1R. As discussed above, activation of CRF1R induces activation of the HPA axis since increased corticosteroid production leads to skeletal muscle atrophy. In most cases in which an increase in muscle mass or function is desired, it is not desirable to activate the HPA axis.
(§2) Because it is desirable to discriminate binding between CRF2R, as compared with CRF1R, the assays described above may be conducted using a cell, or membrane from a cell, which expresses only CRF2R or the assays can be conducted with a recombinant source of CRF2R. Cells expressing both forms of CRFR may be modified using homologous recombination to inactivate or otherwise disable the CRF1R gene. Alternatively, if the source of CRFR contains more than one CRFR type, the background signal produced by the receptor which is not of interest must be subtracted from the signal obtained in the assay. […] Known antagonists of CRFRs include, but are not limited to, antalarmin (CRF1R selective), antisauvagine-30 (CRF2R selective) and astressin (nonselective for CRF1R/CRF2R).
(§3) Cell-based assays include the steps of contacting cells which express CRF1R or CRF2R with a peptide of the present invention or control and measuring activation of the CRFR by measuring the expression or activity of components of the CRFR signal transduction pathways.
(§4) For example, after contact with a peptide of the present invention, lysates of the cells can be prepared and assayed for induction of cAMP. cAMP is induced in response to Gαs activation. Because Gαs is activated by receptors other than CRFR and because a test peptide may be exerting its effect through CRFRs or by another mechanism, two control comparisons are relevant for determining whether the peptide increases levels of cAMP via activation of a CRFR. One control compares the cAMP level of cells contacted with the peptide and the cAMP level of cells contacted with a control compound (i.e., the vehicle in which the peptide is dissolved).
(§5) In one example, cAMP induction is measured with the use of DNA constructs containing the cAMP responsive element linked to any of a variety of reporter genes can be introduced into cells expressing CRFRs. Such reporter genes include, but are not limited to, chloramphenicol acetyltransferase (CAT), luciferase, glucuronide synthetase, growth hormone, fluorescent proteins (e.g., Green Fluorescent Protein), or alkaline phosphatase. Following exposure of the cells to the peptide, the level of reporter gene expression can be quantitated to determine the peptide's ability to increase cAMP levels and thus determine the peptide's ability to activate the CRFR.
(§6) In addition to using cells expressing full length CRFRs, cells can be engineered which express CRFRs containing the ligand binding domain of the receptor coupled to, or physically modified to contain, reporter elements or to interact with signaling proteins. For example, a wild type CRFR or CRFR fragment can be fused to a G-protein resulting in activation of the fused G-protein upon agonist binding to the CRFR portion of the fusion protein. […] In addition, alternative pathways for induction of the CRE reporter could be eliminated to reduce basal levels.

CRF1R = molecular target: T2, CRF1R (Homo sapiens, UniProt P34998); test: CRF1R agonist activity (EC50 and Emax), called comparative CRF binding; format: cell-based; conditions: CRF1R
T2 sequence (P34998 24-415): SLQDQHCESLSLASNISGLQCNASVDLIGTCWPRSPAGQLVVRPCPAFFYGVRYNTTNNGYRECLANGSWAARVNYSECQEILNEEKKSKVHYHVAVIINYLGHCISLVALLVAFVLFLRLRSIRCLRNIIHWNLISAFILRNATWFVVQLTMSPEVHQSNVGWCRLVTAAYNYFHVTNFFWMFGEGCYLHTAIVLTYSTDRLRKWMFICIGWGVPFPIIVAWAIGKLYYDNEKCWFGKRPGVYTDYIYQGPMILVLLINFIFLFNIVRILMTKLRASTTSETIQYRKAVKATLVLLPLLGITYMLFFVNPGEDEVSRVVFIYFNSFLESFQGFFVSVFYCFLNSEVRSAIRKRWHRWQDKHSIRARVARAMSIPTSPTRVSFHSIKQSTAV
Source text: as §1, §2, §3, §4, §5, §6

Compound | EC50 (CRF2R) [nM] | EC50 (CRF1R; read-out: CRF1R EC50) [nM] | CRF2R (Emax %) (CRF2R) | CRF1R (Emax %) (CRF1R)
CC[C@H](C)[C@H](N)C(=O)N[C@H](C(=O)N[C@@H](CC(C)C)C(=O)N[C@@H](CO)C(=O)N[C@@H](CC(C)C)C(=O)N[C@@H](CC(=O)O)C(=O)N[C@H](C(=O)N1CCC[C@H]1C(=O)N[C@H](C(=O)NCC(=O)N[C@@H](CC(C)C)C(=O)N[C@@H](CC(C)C)C(=O)N[C@@H](CCC(N)=O)C(=O)N[C@H](C(=O)N[C@@H](CC(C)C)C(=O)N[C@@H](CC(C)C)C(=O)N[C@@H](CCC(=O)O)C(=O)N[C@@H](CCC(N)=O)C(=O)N[C@H](C(=O)N[C@@H](CCCCN)C(=O)N[C@@H](C)C(=O)N[C@@H](CC(N)=O)C(=O)N[C@@H](C)C(=O)N[C@@H](C)C(=O)N[C@@H](CCCNC(=N)N)C(=O)N[C@@H](CCC(=O)O)C(=O)N[C@@H](CCC(N)=O)C(=O)N[C@@H](C)C(=O)N[C@H](C(=O)N[C@H](C(=O)N[C@H](C(=O)N[C@@H](C)C(=O)N[C@@H](CCCNC(=N)N)C(=O)N[C@H](C(=O)N[C@@H](CC(C)C)C(=O)N[C@@H](C)C(=O)N[C@@H](CCCNC(=N)N)C(=O)N[C@H](C(N)=O)C(C)C)[C@@H](C)CC)C(C)C)[C@@H](C)O)[C@@H](C)O)[C@@H](C)O)[C@@H](C)CC)[C@@H](C)CC)C(C)C)C(C)C [compound 116] (H-IVLSLDVPIGLLQILLEQTKANAAREQATTVARILARV-NH2) | ≥ 100 | ≥ 100 | – | –
CC[C@H](C)[C@H](N)C(=O)N[C@H](C(=O)N[C@@H](CC(C)C)C(=O)N[C@@H](CO)C(=O)N[C@@H](CC(C)C)C(=O)N[C@@H](CC(=O)O)C(=O)N[C@H](C(=O)N1CCC[C@H]1C(=O)N[C@H](C(=O)NCC(=O)N[C@@H](CC(C)C)C(=O)N[C@@H](CC(C)C)C(=O)N[C@@H](CCC(N)=O)C(=O)N[C@H](C(=O)N[C@@H](CC(C)C)C(=O)N[C@@H](CC(C)C)C(=O)N[C@@H](CCC(=O)O)C(=O)N[C@@H](CCC(N)=O)C(=O)N[C@@H](C)C(=O)N[C@@H](CCCCN)C(=O)N[C@@H](C)C(=O)N[C@@H](CCCNC(=N)N)C(=O)N[C@@H](C)C(=O)N[C@@H](C)C(=O)N[C@@H](CCCNC(=N)N)C(=O)N[C@@H](CCC(=O)O)C(=O)N[C@@H](CCC(N)=O)C(=O)N[C@@H](C)C(=O)N[C@H](C(=O)N[C@H](C(=O)N[C@@H](CC(N)=O)C(=O)N[C@@H](C)C(=O)N[C@@H](CCCNC(=N)N)C(=O)N[C@H](C(=O)N[C@@H](CC(C)C)C(=O)N[C@@H](C)C(=O)N[C@@H](CCCNC(=N)N)C(=O)N[C@H](C(N)=O)C(C)C)[C@@H](C)CC)[C@@H](C)O)[C@@H](C)O)[C@@H](C)CC)[C@@H](C)CC)C(C)C)C(C)C [compound 127] (H-IVLSLDVPIGLLQILLEQAKARAAREQATTNARILARV-NH2; N-terminus assumed) | 7.79 | – | (94) % | (6) %
CC[C@H](C)[C@H](N)C(=O)N[C@H](C(=O)N[C@@H](CC(C)C)C(=O)N[C@@H](CO)C(=O)N[C@@H](CC(C)C)C(=O)N[C@@H](CC(=O)O)C(=O)N[C@H](C(=O)N1CCC[C@H]1C(=O)N[C@H](C(=O)NCC(=O)N[C@@H](CC(C)C)C(=O)N[C@@H](CC(C)C)C(=O)N[C@@H](CCC(N)=O)C(=O)N[C@H](C(=O)N[C@@H](CC(C)C)C(=O)N[C@@H](CC(C)C)C(=O)N[C@@H](CCC(=O)O)C(=O)N[C@@H](CCC(N)=O)C(=O)N[C@H](C(=O)N[C@@H](CCCCN)C(=O)N[C@@H](C)C(=O)N[C@@H](CCCNC(=N)N)C(=O)N[C@@H](C)C(=O)N[C@@H](C)C(=O)N[C@@H](CCCNC(=N)N)C(=O)N[C@@H](CCC(=O)O)C(=O)N[C@@H](CCC(N)=O)C(=O)N[C@@H](C)C(=O)N[C@H](C(=O)N[C@H](C(=O)N[C@@H](CC(N)=O)C(=O)N[C@@H](C)C(=O)N[C@@H](CCCNC(=N)N)C(=O)N[C@H](C(=O)N[C@@H](CC(C)C)C(=O)N[C@@H](C)C(=O)N[C@@H](CCCNC(=N)N)C(=O)N[C@H](C(N)=O)C(C)C)[C@@H](C)CC)[C@@H](C)O)[C@@H](C)O)[C@@H](C)O)[C@@H](C)CC)[C@@H](C)CC)C(C)C)C(C)C [compound 129] (H-IVLSLDVPIGLLQILLEQTKARAAREQATTNARILARV-NH2) | 3.83 | – | (92) % | (12) %

Reference: US7632933B2, “Corticotropin releasing factor 2 receptor agonists” (priority 2002, dated 2009)
